# Laboratory results from PMC6167049, “Structural and catalytic properties of the peroxygenase P450 enzyme CYP152K6 from Bacillus methanolicus” (Journal of Inorganic Biochemistry, 2018).
# Columns and labels:
# CYP152K6 [1] = target: T1, CYP152K6 (Bacillus methanolicus, UniProt I3DZK9); assay: X-band EPR and UV-visible spectroscopy; assay type: binding; conditions: ferric enzyme; EPR at 10 K, 1 and 2 mM ligand; UV-visible with 400 μM ligand, pH 8.0, 25 °C; H2O2-driven turnover also tested
# T1 construct: gene cypC; codon-optimised synthetic gene in pET24b, E. coli BL21 (DE3); N-terminal 6xHis-tag cut with TEV protease; monomer; 417 residues in crystal model; co-purifies with tetradecanoic acid
# CYP152K6 [2] = target: T1, CYP152K6; assay: X-ray crystal structure, […] Å; assay type: binding; conditions: co-purified from E. coli, bound above heme at Arg244; pH 8.0 protein buffer
# T1 sequence (I3DZK9 whole entry): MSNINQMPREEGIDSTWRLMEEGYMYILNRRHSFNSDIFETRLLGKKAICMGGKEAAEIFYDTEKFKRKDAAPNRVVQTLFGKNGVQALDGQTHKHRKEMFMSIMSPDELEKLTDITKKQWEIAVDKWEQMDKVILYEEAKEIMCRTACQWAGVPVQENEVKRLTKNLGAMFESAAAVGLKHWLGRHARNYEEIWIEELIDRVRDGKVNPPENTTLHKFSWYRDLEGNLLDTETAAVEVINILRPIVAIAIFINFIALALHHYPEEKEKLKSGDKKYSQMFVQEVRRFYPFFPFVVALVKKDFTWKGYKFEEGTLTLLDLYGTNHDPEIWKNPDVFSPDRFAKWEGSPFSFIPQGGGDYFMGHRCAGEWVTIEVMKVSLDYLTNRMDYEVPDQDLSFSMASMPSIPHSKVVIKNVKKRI
SMILES,X-band EPR and UV-visible spectroscopy (CYP152K6 [1]),"X-ray crystal structure, 1.3 Å (CYP152K6 [2])"
CCCCCCCCCCCC(=O)O [dodecanoic acid],the addition of dodecanoic acid alters the equilibria between the three major components,–
CCCCCCCCCCCCCC(=O)O [tetradecanoic acid],–,The final model of CYP152K6 in complex with tetradecanoic acid has been deposited
